Assays:
[1] = test system: recombinant NL4-3 virus (nef section replaced with Renilla luciferase gene) in MT-2 cells; test: HIV cell culture assay (antiviral activity, luciferase readout); format: cell-based; details: Renilla, NL43, MT-2 cells infected for 4-5 days with recombinant NL4-3 Renilla luciferase virus
Method in brief: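 293T transfection → virus harvest at 2-3 d → titer in MT-2 by luciferase. MT-2 + virus + serial cpd dilutions, 4-5 d. Live-cell luciferase read; EC50 by median effect fit.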

[2] = Compound cytotoxicity, XTT-based colorimetric assay; format: cell-based; details: human; uninfected MT2 cells, day 4, XTT; read-out: CC50
Method in brief: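 Uninfected MT2 cells were treated with compound under the same protocol as the antiviral assay. Viability was read on day 4 with an XTT colorimetric assay, from which CC50 values were derived.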

Row | SMILES | EC50 [1] | CC50 at 4 days [2]
1 | COCCCn1nc(NS(C)(=O)=O)c2c(Cl)ccc(-n3c([C@H](Cc4cc(F)cc(F)c4)NC(=O)Cn4nc(C(F)F)c5c4C(F)(F)[C@@H]4C[C@H]54)nc4nc(C5CCC(F)(F)CC5)cc(C5CC5)c4c3=O)c21 (atropisomer, axis not shown; (P)) [Example 375, N-[(1S)-1-[(3P)-3-[4-chloro-3-methanesulfonamido-1-(3-methoxypropyl)-1H-indazol-7-yl]-5-cyclopropyl-7-(4,4-difluorocyclohexyl)-4-oxo-3H,4H-pyrido[2,3-d]pyrimidin-2-yl]-2-(3,5-difluorophenyl)ethyl]-2-[(2S,4R)-9-(difluoromethyl)-5,5-difluoro-7,8-diazatricyclo[4.3.0.0^2,^4]nona-1(6),8-dien-7-yl]acetamide] | 0.014 nM | > 20 nM
2 | COCCCn1nc(NS(C)(=O)=O)c2c(Cl)ccc(-n3c([C@H](Cc4cc(F)cc(F)c4)NC(=O)Cn4nc(C(F)F)c5c4C(F)(F)[C@@H]4C[C@H]54)nc4nc(C5CCC(F)(F)CC5)cc(CF)c4c3=O)c21 (atropisomer, axis not shown; (P)) [Example 449, N-[(1S)-1-[(3P)-3-[4-chloro-3-methanesulfonamido-1-(3-methoxypropyl)-1H-indazol-7-yl]-7-(4,4-difluorocyclohexyl)-5-(fluoromethyl)-4-oxo-3H,4H-pyrido[2,3-d]pyrimidin-2-yl]-2-(3,5-difluorophenyl)ethyl]-2-[(2S,4R)-9-(difluoromethyl)-5,5-difluoro-7,8-diazatricyclo[4.3.0.0^2,4]nona-1(6),8-dien-7-yl]acetamide] | 0.009 nM | > 20 nM
3 | COCCN(CCOC)C(=O)Cn1nc(NS(C)(=O)=O)c2c(Cl)ccc(-n3c([C@H](Cc4cc(F)cc(F)c4)NC(=O)Cn4nc(C5CC5)c5c4C[C@@H]4C[C@H]54)nc4nc(C5CCC(F)(F)CC5)cc(C)c4c3=O)c21 (atropisomer, axis not shown; (P)) [Example 387, 2-[(6P)-4-chloro-7-{2-[(1S)-1-{2-[(2S,4S)-9-cyclopropyl-7,8-diazatricyclo[4.3.0.0^2,^4]nona-1(6),8-dien-7-yl]acetamido}-2-(3,5-difluorophenyl)ethyl]-7-(4,4-difluorocyclohexyl)-5-methyl-4-oxo-3H,4H-pyrido[2,3-d]pyrimidin-3-yl}-3-methanesulfonamido-1H-indazol-1-yl]-N,N-bis(2-methoxyethyl)acetamide] | 0.039 nM | > 20 nM
4 | CS(=O)(=O)Nc1nn(CCN2CCC(F)(F)CC2)c2c(-n3c([C@H](Cc4cc(F)cc(F)c4)NC(=O)Cn4nc(C(F)F)c5c4C(F)(F)[C@@H]4C[C@H]54)nc4nc(C5CCC(F)(F)CC5)cc(C(F)F)c4c3=O)ccc(Cl)c12 (atropisomer, axis not shown; (P)) [Example 149, N-[(1S)-1-[(3P)-3-{4-chloro-1-[2-(4,4-difluoropiperidin-1-yl)ethyl]-3-methanesulfonamido-1H-indazol-7-yl}-7-(4,4-difluorocyclohexyl)-5-(difluoromethyl)-4-oxo-3H,4H-pyrido[2,3-d]pyrimidin-2-yl]-2-(3,5-difluorophenyl)ethyl]-2-[(2S,4R)-9-(difluoromethyl)-5,5-difluoro-7,8-diazatricyclo[4.3.0.0^2,^4]nona-1(6),8-dien-7-yl]acetamide] | 0.018 nM | > 50 nM
5 | CS(=O)(=O)Nc1nn(CCN2CCN(S(C)(=O)=O)CC2)c2c(-n3c([C@H](Cc4cc(F)cc(F)c4)NC(=O)Cn4nc(C5CC5)c5c4C[C@@H]4C[C@H]54)nc4nc(C5CCC(F)(F)CC5)ccc4c3=O)ccc(Cl)c12 (atropisomer, axis not shown; (P)) [Example 382, N-[(1S)-1-[(3P)-3-{4-chloro-3-methanesulfonamido-1-[2-(4-methanesulfonylpiperazin-1-yl)ethyl]-1H-indazol-7-yl}-7-(4,4-difluorocyclohexyl)-4-oxo-3H,4H-pyrido[2,3-d]pyrimidin-2-yl]-2-(3,5-difluorophenyl)ethyl]-2-[(2S,4S)-9-cyclopropyl-7,8-diazatricyclo[4.3.0.0^2,^4]nona-1(6),8-dien-7-yl]acetamide] | 0.037 nM | > 20 nM
6 | Cc1cc(C2CCC(F)(F)CC2)nc2nc([C@H](Cc3cc(F)cc(F)c3)NC(=O)Cn3nc(C(F)F)c4c3C(F)(F)[C@@H]3C[C@H]43)n(-c3ccc(Cl)c4c(NS(C)(=O)=O)nn(CCN5CCOCC5)c34)c(=O)c12 (atropisomer, axis not shown; (P)) [Example 105, N-[(1S)-1-[(3P)-3-{4-chloro-3-methanesulfonamido-1-[2-(morpholin-4-yl)ethyl]-1H-indazol-7-yl}-7-(4,4-difluorocyclohexyl)-5-methyl-4-oxo-3H,4H-pyrido[2,3-d]pyrimidin-2-yl]-2-(3,5-difluorophenyl)ethyl]-2-[(2S,4R)-9-(difluoromethyl)-5,5-difluoro-7,8-diazatricyclo[4.3.0.0^2,^4]nona-1(6),8-dien-7-yl]acetamide] | 0.011 nM | > 50 nM
7 | Cc1cc(C2CCC(F)(F)CC2)nc2nc([C@H](Cc3cc(F)cc(F)c3)NC(=O)Cn3nc(C4CC4)c4c3C[C@@H]3C[C@H]43)n(-c3ccc(Cl)c4c(NS(C)(=O)=O)nn([C@H](C)C(=O)N5C[C@@H](C)O[C@@H](C)C5)c34)c(=O)c12 (relative stereo) [Example 679, N-[(1S)-1-[(3P)-3-{4-chloro-1-[(2R)-1-[(2R,6S)-2,6-dimethylmorpholin-4-yl]-1-oxopropan-2-yl]-3-methanesulfonamido-1H-indazol-7-yl}-7-(4,4-difluorocyclohexyl)-5-methyl-4-oxo-3H,4H-pyrido[2,3-d]pyrimidin-2-yl]-2-(3,5-difluorophenyl)ethyl]-2-[(2R*,4R*)-9-cyclopropyl-7,8-diazatricyclo[4.3.0.0^2,^4]nona-1(6),8-dien-7-yl]acetamide] | 0.012 nM | > 20 nM
8 | C[C@@H]1CN(CCn2nc(NS(C)(=O)=O)c3c(Cl)ccc(-n4c([C@H](Cc5cc(F)cc(F)c5)NC(=O)Cn5nc(C(F)F)c6c5C(F)(F)[C@@H]5C[C@H]65)nc5nc(C6CCC(F)(F)CC6)ccc5c4=O)c32)CCO1 (atropisomer, axis not shown; (P)) [Example 360] | 0.01 nM | > 50 nM
9 | COCCOCCn1nc(NS(C)(=O)=O)c2c(Cl)ccc(-n3c([C@H](Cc4cc(F)cc(F)c4)NC(=O)Cn4nc(C(F)F)c5c4C(F)(F)[C@@H]4C[C@H]54)nc4nc(C5CCC(F)(F)CC5)ccc4c3=O)c21 (atropisomer, axis not shown; (P)) [Example 241, N-[(1S)-1-[(3P)-3-{4-chloro-3-methanesulfonamido-1-[2-(2-methoxyethoxy)ethyl]-1H-indazol-7-yl}-7-(4,4-difluorocyclohexyl)-4-oxo-3H,4H-pyrido[2,3-d]pyrimidin-2-yl]-2-(3,5-difluorophenyl)ethyl]-2-[(2S,4R)-9-(difluoromethyl)-5,5-difluoro-7,8-diazatricyclo[4.3.0.0^2,^4]nona-1(6),8-dien-7-yl]acetamide] | 0.018 nM | > 50 nM
10 | Cc1cc(C2(F)CCC(F)(F)CC2)nc2nc([C@H](Cc3cc(F)cc(F)c3)NC(=O)Cn3nc(C4CC4)c4c3C[C@@H]3C[C@H]43)n(-c3ccc(Cl)c4c(NS(C)(=O)=O)nn(CCN5CCOC(C)(C)C5)c34)c(=O)c12 (atropisomer, axis not shown; (P)) [Example 585, N-[(1S)-1-[(3P)-3-{4-chloro-1-[2-(2,2-dimethylmorpholin-4-yl)ethyl]-3-methanesulfonamido-1H-indazol-7-yl}-5-methyl-4-oxo-7-(1,4,4-trifluorocyclohexyl)-3H,4H-pyrido[2,3-d]pyrimidin-2-yl]-2-(3,5-difluorophenyl)ethyl]-2-[(2S,4S)-9-cyclopropyl-7,8-diazatricyclo[4.3.0.0^2,^4]nona-1(6),8-dien-7-yl]acetamide] | 0.012 nM | > 20 nM
11 | CS(=O)(=O)Nc1nn(CCN2CCC(C(F)(F)F)C2)c2c(-n3c([C@H](Cc4cc(F)cc(F)c4)NC(=O)Cn4nc(C(F)F)c5c4C(F)(F)[C@@H]4C[C@H]54)nc4nc(C5CCC(F)(F)CC5)ccc4c3=O)ccc(Cl)c12 (stereo partly drawn) [Example 199, N-[(1S)-1-[(3P)-3-(4-chloro-3-methanesulfonamido-1-{2-[3-(trifluoromethyl)pyrrolidin-1-yl]ethyl}-1H-indazol-7-yl)-7-(4,4-difluorocyclohexyl)-4-oxo-3H,4H-pyrido[2,3-d]pyrimidin-2-yl]-2-(3,5-difluorophenyl)ethyl]-2-[(2S,4R)-9-(difluoromethyl)-5,5-difluoro-7,8-diazatricyclo[4.3.0.0^2,^4]nona-1(6),8-dien-7-yl]acetamide] | 0.023 nM | > 50 nM
12 | Cc1cc(C2CCC(F)(F)CC2)nc2nc([C@H](Cc3cc(F)cc(F)c3)NC(=O)Cn3nc(C4CC4)c4c3C[C@@H]3C[C@H]43)n(-c3ccc(Cl)c4c(NS(C)(=O)=O)nn(CCN5CC6(CCC6)OC6(CCC6)C5)c34)c(=O)c12 (atropisomer, axis not shown; (P)) [Example 445, N-[(1S)-1-[(3P)-3-[4-chloro-3-methanesulfonamido-1-(2-{5-oxa-11-azadispiro[3.1.3^6.3^4]dodecan-11-yl}ethyl)-1H-indazol-7-yl]-7-(4,4-difluorocyclohexyl)-5-methyl-4-oxo-3H,4H-pyrido[2,3-d]pyrimidin-2-yl]-2-(3,5-difluorophenyl)ethyl]-2-[(2S,4S)-9-cyclopropyl-7,8-diazatricyclo[4.3.0.0^2,^4]nona-1(6),8-dien-7-yl]acetamide] | 0.015 nM | > 20 nM

— US12594276B2, “Inhibitors of human immunodeficiency virus replication” (ViiV Healthcare UK (No.5) Limited, priority 2024, dated 2026)
